Source: PubChem BioAssay (NCI)
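96-well plates; 48 h exposure; 5 concentrations. Endpoints by linear interpolation between flanking doses. Not reached: highest tested concentration assigned. At the TGI there is no net growth.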 Where a SMILES comes first, the peptide text is derived from it. [ ]: non-standard residue; d: D form. The star is where a group is joined. Phe(4-NO2) = N[CH](Cc1ccc([N+](=O)[O-])cc1)C(=O)O; Boc = CC(C)(C)OC(=O)*; OtBu = CC(C)(C)O*

Experiments:
Test in all cases: NCI-60 cell line screen, 48 h
[1] = tested on: SK-MEL-5 melanoma
[2] = tested on: SK-OV-3 ovarian
[3] = tested on: HOP-62 NSCLC
[4] = tested on: OVCAR-5 ovarian
[5] = tested on: KM12 colon
[6] = tested on: SF-268 CNS
[7] = tested on: 786-0 renal
[8] = tested on: HS 578T breast
[9] = tested on: NCI-H23 lung
[10] = tested on: NCI-H522 lung
[11] = tested on: LOX IMVI melanoma
[12] = tested on: U251 CNS
[13] = tested on: CCRF-CEM leukemia
[14] = tested on: SNB-19 CNS
[15] = tested on: SW-620 colon
[16] = tested on: SN12C renal
[17] = tested on: M14 melanoma
[18] = tested on: NCI/ADR-RES ovarian
[19] = tested on: OVCAR-4 ovarian
[20] = tested on: HOP-92 NSCLC
[21] = tested on: HCC-2998 colon
[22] = tested on: EKVX NSCLC
[23] = tested on: SF-295 CNS
[24] = tested on: K-562 leukemia
[25] = tested on: MALME-3M melanoma
[26] = tested on: MOLT-4 leukemia
[27] = tested on: RPMI-8226 leukemia
[28] = tested on: TK-10 renal
[29] = tested on: COLO 205 colon
[30] = tested on: SNB-75 CNS
[31] = tested on: UACC-257 melanoma
[32] = tested on: OVCAR-3 ovarian
[33] = tested on: MDA-MB-231 breast
[34] = tested on: CAKI-1 renal
[35] = tested on: SR leukemia
[36] = tested on: MDA-MB-435
[37] = tested on: UO-31 renal
[38] = tested on: SF-539 CNS
[39] = tested on: DU-145 prostate
[40] = tested on: BT-549 breast
[41] = tested on: HCT-116 colon
[42] = tested on: OVCAR-8 ovarian
[43] = tested on: MCF7 breast
[44] = tested on: A549 NSCLC
[45] = tested on: IGROV1 ovarian
[46] = tested on: A498 renal
[47] = tested on: MDA-N
[48] = tested on: NCI-H460 lung
[49] = tested on: HT29 colon
[50] = tested on: NCI-H226 lung
[51] = tested on: SK-MEL-28 melanoma
[52] = tested on: RXF 393 renal
[53] = tested on: SK-MEL-2 melanoma
[54] = tested on: HCT-15 colon
[55] = tested on: T-47D breast
[56] = tested on: UACC-62 melanoma
[57] = tested on: PC-3 prostate
[58] = tested on: ACHN renal
[59] = tested on: HL-60(TB) leukemia

**Q.** What does the source list for `COC(=O)C(Cc1ccc([N+](=O)[O-])cc1)NC(=O)C(CC(=O)OC(C)(C)C)NC(=O)OC(C)(C)C` (configuration not stated) (Boc-Asp(OtBu)-[Phe(4-NO2)]-OMe; configuration not given here)?
**A.** TGI [1]: > 100 µM; TGI [2]: > 100 µM; TGI [3]: > 100 µM; TGI [4]: > 100 µM; TGI [5]: > 100 µM; TGI [6]: > 100 µM; TGI [7]: > 100 µM; TGI [8]: 40.6 µM; TGI [9]: > 100 µM; TGI [10]: > 100 µM; TGI [11]: 49 µM; TGI [12]: > 100 µM; TGI [13]: > 100 µM; TGI [14]: > 100 µM; TGI [15]: > 100 µM; TGI [16]: > 100 µM; TGI [17]: > 100 µM; TGI [18]: > 100 µM; TGI [19]: > 100 µM; TGI [20]: > 100 µM; TGI [21]: > 100 µM; TGI [22]: > 100 µM; TGI [23]: > 100 µM; TGI [24]: > 100 µM; TGI [25]: > 100 µM; TGI [26]: > 100 µM; TGI [27]: > 100 µM; TGI [28]: > 100 µM; TGI [29]: > 100 µM; TGI [30]: > 100 µM; TGI [31]: > 100 µM; TGI [32]: > 100 µM; TGI [33]: 68.4 µM; TGI [34]: > 100 µM; TGI [35]: 54 µM; TGI [36]: > 100 µM; TGI [37]: 29.6 µM; TGI [38]: > 100 µM; TGI [39]: > 100 µM; TGI [40]: > 100 µM; TGI [41]: > 100 µM; TGI [42]: > 100 µM; TGI [43]: > 100 µM; TGI [44]: > 100 µM; TGI [45]: > 100 µM; TGI [46]: > 100 µM; TGI [47]: > 100 µM; TGI [48]: > 100 µM; TGI [49]: > 100 µM; TGI [50]: > 100 µM; TGI [51]: 57.4 µM; TGI [52]: > 100 µM; TGI [53]: > 100 µM; TGI [54]: > 100 µM; TGI [55]: > 100 µM; TGI [56]: > 100 µM; TGI [57]: > 100 µM; TGI [58]: > 100 µM; TGI [59]: > 100 µM

**Q.** What does the source list for `Cc1cc(S(=O)(=O)NC(=NCC(=O)NN)NN)c(S)cc1Cl`?
**A.** TGI [1]: > 10 µM; TGI [2]: > 10 µM; TGI [3]: > 10 µM; TGI [4]: > 10 µM; TGI [5]: > 10 µM; TGI [6]: > 10 µM; TGI [7]: > 10 µM; TGI [8]: > 10 µM; TGI [9]: > 10 µM; TGI [10]: > 10 µM; TGI [11]: > 10 µM; TGI [12]: > 10 µM; TGI [13]: > 10 µM; TGI [14]: > 10 µM; TGI [15]: > 10 µM; TGI [16]: > 10 µM; TGI [17]: > 10 µM; TGI [18]: > 10 µM; TGI [19]: > 10 µM; TGI [20]: > 10 µM; TGI [21]: > 10 µM; TGI [22]: > 10 µM; TGI [23]: > 10 µM; TGI [24]: > 10 µM; TGI [25]: > 10 µM; TGI [26]: > 10 µM; TGI [27]: > 10 µM; TGI [28]: > 10 µM; TGI [29]: > 10 µM; TGI [30]: > 10 µM; TGI [31]: > 10 µM; TGI [32]: > 10 µM; TGI [33]: > 10 µM; TGI [34]: > 10 µM; TGI [35]: > 10 µM; TGI [36]: > 10 µM; TGI [38]: > 10 µM; TGI [39]: > 10 µM; TGI [40]: > 10 µM; TGI [41]: > 10 µM; TGI [42]: > 10 µM; TGI [43]: > 10 µM; TGI [44]: > 10 µM; TGI [45]: > 10 µM; TGI [46]: > 10 µM; TGI [47]: > 10 µM; TGI [48]: > 10 µM; TGI [49]: > 10 µM; TGI [50]: > 10 µM; TGI [51]: > 10 µM; TGI [52]: > 10 µM; TGI [53]: > 10 µM; TGI [54]: > 10 µM; TGI [55]: > 10 µM; TGI [56]: > 10 µM; TGI [57]: > 10 µM; TGI [58]: > 10 µM; TGI [59]: > 10 µM
